The test system of one assay is IL23p19 in THP-1 Cells. In words: LPS Induced IL23p19 in THP-1 Cells (with IFNγ Primed) Assay. The conditions noted are these: Homo sapiens, THP-1, 18 h, read-out: IL23 (THP, LPS) (IC50, μM). The class given is cell-based. In outline: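 THP-1 cells (50K/well) primed with IFNγ (50 ng/mL) about 18 h, then given compound and stimulated with LPS for 18 h at 37 °C. Secreted IL-23p19 measured by sandwich ELISA with chemiluminescent read-out, giving EC50. Cell Titer Glo used on the remaining cells for toxicity.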

A further assay deals with TNF-α in human PBMCs. Nature of the assay: R848-induced TNF-α in human PBMCs Assay. The class given is cell-based. The conditions noted are these: Homo sapiens, PBMC, 4 h, read-out: TNFα (PBMC, R848) (IC50, μM). The essentials:
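Human PBMCs at 200K/well were pretreated with compound, then R848-stimulated for 4 h at 37 °C, 5% CO2. Supernatant TNF-α quantified by chemiluminescent ELISA; EC50 from curve fitting.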

Assay [1] deals with TNF-α in Human Primary Monocyte-Derived Dendritic Cells. In words: Gardiquimod-Induced TNF-α in Human Primary Monocyte-Derived Dendritic Cells. It counts as cell-based. The conditions noted are these: Dendritic cell, IFNγ-primed monocyte-derived dendritic cells, 4 μg/ml Gardiquimod, 6 hours, TNF-α ELISA, read-out: TNFα (DC, GARD) (IC50). The essentials: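 Monocytes differentiated 7 days with GM-CSF and IL-4, then primed 24 h with 50 ng/ml IFN-γ. Compound added 1 h before 6 h stimulation with 4 μg/ml Gardiquimod, 0.5% DMSO final. Supernatant TNF-α measured by chemiluminescent ELISA; EC50 from curve fitting.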
On the technique in general: In an ELISA, binding on a coated surface is turned into a signal by an enzyme label.

The next assay has as its target IRAK4 (Homo sapiens (Human), UniProt Q9NWZ3). Nature of the assay: IRAK4 ADP-Glo Assay. It counts as biochemical. The conditions noted are these: MBP substrate. The essentials:
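Human IRAK4 kinase reaction with MBP substrate plus ATP in Tris-HCl/MgCl2/BSA/DTT buffer, pH 7.4, run 60 min at room temperature or 30 min at 30 °C. ADP formed was measured by ADP-Glo luminescence after ATP depletion (40 min) and detection reagent (30 min).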
A general note: In ADP-Glo the light output rises with the ADP produced.

The values that follow come from US20230391748A1, “BICYCLIC INHIBITORS OF IRAK” (priority 2022, published 2023).

Chain of IRAK4 (Q9NWZ3 whole entry): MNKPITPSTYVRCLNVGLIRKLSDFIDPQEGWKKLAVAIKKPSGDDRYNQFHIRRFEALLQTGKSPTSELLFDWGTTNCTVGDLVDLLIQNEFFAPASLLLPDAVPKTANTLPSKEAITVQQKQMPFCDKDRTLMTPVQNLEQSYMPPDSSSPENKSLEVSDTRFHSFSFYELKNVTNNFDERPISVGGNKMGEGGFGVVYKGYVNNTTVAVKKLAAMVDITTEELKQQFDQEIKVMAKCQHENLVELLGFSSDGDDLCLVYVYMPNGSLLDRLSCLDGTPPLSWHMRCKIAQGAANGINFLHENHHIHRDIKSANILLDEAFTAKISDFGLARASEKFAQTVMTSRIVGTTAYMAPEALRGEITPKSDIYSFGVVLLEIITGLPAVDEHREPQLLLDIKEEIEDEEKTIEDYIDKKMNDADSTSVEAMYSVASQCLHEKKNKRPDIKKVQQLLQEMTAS

For orientation: IC50 means the concentration needed to halve the response being measured. Consider `CC(C)Oc1cc2c(OC[C@@H]3CCC(=O)N3)ncc(-c3cnn(C4CCC4)c3)c2cc1C(N)=O` [Compound I-33, (S)-4-(1-cyclobutyl-1H-pyrazol-4-yl)-7-isopropoxy-1-((5-oxopyrrolidin-2-yl)methoxy)isoquinoline-6-carboxamide], for which the IC50 with IL23p19 in THP-1 Cells was found to be 0.2 µM; in the assay on TNF-α in human PBMCs, 0.272 µM; in assay [1], 218 nM; against IRAK4, 7.5 nM.
`CC(C)Oc1cc2c(OC[C@@H]3CCC(=O)N3)ncc(-c3cnn(C4CCCC4)c3)c2cc1C(N)=O` [Compound I-34, (S)-4-(1-cyclopentyl-1H-pyrazol-4-yl)-7-isopropoxy-1-((5-oxopyrrolidin-2-yl)methoxy)isoquinoline-6-carboxamide]: the half-maximal inhibitory concentration (IC50) with IL23p19 in THP-1 Cells is 1.3 µM; in the assay with TNF-α in human PBMCs it was 0.295 µM; in assay [1] it was 470 nM; against IRAK4, 7.7 nM.
Regarding `CC(C)Oc1cc2c(OC[C@@H]3CCC(=O)N3)ncc(-c3cnn(C4CCOCC4)c3)c2cc1C(N)=O` [Compound I-35, (S)-7-isopropoxy-1-((5-oxopyrrolidin-2-yl)methoxy)-4-(1-(tetrahydro-2H-pyran-4-yl)-1H-pyrazol-4-yl)isoquinoline-6-carboxamide], the IC50 in the assay with IL23p19 in THP-1 Cells is 7.52 µM; in the assay on TNF-α in human PBMCs, 1.3 µM; in assay [1] it was 1620 nM; on IRAK4 it was 25.7 nM.
On the same counts, the results for `CC(C)Oc1cc2c(OC[C@@H]3CCC(=O)N3)ncc(-c3cnn(CC4CCOCC4)c3)c2cc1C(N)=O` [Compound I-36, (S)-7-isopropoxy-1-((5-oxopyrrolidin-2-yl)methoxy)-4-(1-((tetrahydro-2H-pyran-4-yl)methyl)-1H-pyrazol-4-yl)isoquinoline-6-carboxamide] are 0.976 µM, 0.377 µM, 398 nM and 13.5 nM.
Consider `CC(C)Oc1cc2c(OC[C@@H]3CCC(=O)N3)ncc(-c3cnn(CCC4CCOCC4)c3)c2cc1C(N)=O` [Compound I-37, (S)-7-isopropoxy-1-((5-oxopyrrolidin-2-yl)methoxy)-4-(1-(2-(tetrahydro-2H-pyran-4-yl)ethyl)-1H-pyrazol-4-yl)isoquinoline-6-carboxamide], for which the concentration for half-maximal inhibition (IC50) with IL23p19 in THP-1 Cells was determined as 1.34 µM; in the assay on TNF-α in human PBMCs it was 0.324 µM; in assay [1] it was 296 nM; on IRAK4, 13.7 nM.
Turning to `CC(C)Oc1cc2c(OC[C@@H]3CCC(=O)N3)ncc(-c3cnn(CCN4CCOCC4)c3)c2cc1C(N)=O` [Compound I-38, (S)-7-isopropoxy-4-(1-(2-morpholinoethyl)-1H-pyrazol-4-yl)-1-((5-oxopyrrolidin-2-yl)methoxy)isoquinoline-6-carboxamide], the IC50 was determined as 3.41 µM in the assay on IL23p19 in THP-1 Cells, 1.49 µM in the assay on TNF-α in human PBMCs, 4030 nM in assay [1] and 21 nM against IRAK4.
As for `CCO[C@H]1CC[C@H](n2cc(-c3cnc(OC[C@@H]4CCC(=O)N4)c4cc(OC(C)C)c(C(N)=O)cc34)cn2)CC1` [Compound I-39, 4-(1-(trans-4-ethoxycyclohexyl)-1H-pyrazol-4-yl)-7-isopropoxy-1-(((S)-5-oxopyrrolidin-2-yl)methoxy)isoquinoline-6-carboxamide], the 50% inhibitory concentration (IC50) worked out at 0.775 µM in the assay with IL23p19 in THP-1 Cells, 0.693 µM with TNF-α in human PBMCs, 3520 nM in assay [1] and 33.3 nM on IRAK4.
Taken in the same sequence, the figures for `CC(C)Oc1cc2c(OC[C@@H]3CCC(=O)N3)ncc(-c3cnn([C@H]4CC[C@](C)(O)CC4)c3)c2cc1C(N)=O` [Compound I-40, 4-(1-((1r,4S)-4-hydroxy-4-methylcyclohexyl)-1H-pyrazol-4-yl)-7-isopropoxy-1-(((S)-5-oxopyrrolidin-2-yl)methoxy)isoquinoline-6-carboxamide] were 0.817 µM, 0.188 µM, 2420 nM and 17.1 nM.
On the same counts, the results for `CC(C)Oc1cc2c(OC[C@@H]3CCC(=O)N3)ncc(-c3cnn([C@H]4CC[C@@](C)(O)CC4)c3)c2cc1C(N)=O` [Compound I-41, 4-(1-((1s,4R)-4-hydroxy-4-methylcyclohexyl)-1H-pyrazol-4-yl)-7-isopropoxy-1-(((S)-5-oxopyrrolidin-2-yl)methoxy)isoquinoline-6-carboxamide] are 4.61 µM, 0.509 µM, 10000 nM and 37.6 nM.
Take `CCO[C@H]1C[C@@H](n2cc(-c3cnc(OC[C@@H]4CCC(=O)N4)c4cc(OC(C)C)c(C(N)=O)cc34)cn2)C1` [Compound I-42, 4-(1-(cis-3-ethoxycyclobutyl)-1H-pyrazol-4-yl)-7-isopropoxy-1-(((S)-5-oxopyrrolidin-2-yl)methoxy)isoquinoline-6-carboxamide]: the IC50 in the assay with IL23p19 in THP-1 Cells was found to be 0.72 µM; in the assay with TNF-α in human PBMCs, 0.241 µM; in assay [1] it was 135 nM; against IRAK4 it was 6.4 nM.
`CC(C)Oc1cc2c(OC[C@@H]3CCC(=O)N3)ncc(-c3cnn([C@H]4C[C@@H](N(C)C)C4)c3)c2cc1C(N)=O` [Compound I-43, 4-(1-(cis-3-(dimethylamino)cyclobutyl)-1H-pyrazol-4-yl)-7-isopropoxy-1-(((S)-5-oxopyrrolidin-2-yl)methoxy)isoquinoline-6-carboxamide]: the half-inhibitory concentration (IC50) with IL23p19 in THP-1 Cells was found to be 3.1 µM; in the assay on TNF-α in human PBMCs it was 0.701 µM; in assay [1], 355 nM; against IRAK4, 5 nM.
As to `CC(C)Oc1cc2c(OC[C@@H]3CCC(=O)N3)ncc(-c3cnn(C4CCN(C(=O)OC(C)(C)C)CC4)c3)c2cc1C(N)=O` [Compound I-44, tert-butyl (S)-4-(4-(6-carbamoyl-7-isopropoxy-1-((5-oxopyrrolidin-2-yl)methoxy)isoquinolin-4-yl)-1H-pyrazol-1-yl)piperidine-1-carboxylate], the 50% inhibitory concentration (IC50) came out at 0.937 µM with IL23p19 in THP-1 Cells, 0.727 µM in the assay with TNF-α in human PBMCs, 1050 nM in assay [1] and 20.9 nM on IRAK4.
Turning to `CC(C)Oc1cc2c(OC[C@@H]3CCC(=O)N3)ncc(-c3cnn(C4CCNCC4)c3)c2cc1C(N)=O` [Compound I-45, (S)-7-isopropoxy-1-((5-oxopyrrolidin-2-yl)methoxy)-4-(1-(piperidin-4-yl)-1H-pyrazol-4-yl)isoquinoline-6-carboxamide], the half-inhibitory concentration (IC50) in the assay on IL23p19 in THP-1 Cells was determined as 10.9 µM; in the assay on TNF-α in human PBMCs it was 10 µM; in assay [1] it was 1360 nM; against IRAK4, 18.6 nM.
With `CC(C)Oc1cc2c(OC[C@@H]3CCC(=O)N3)ncc(-c3cnn(C4CCN(C)CC4)c3)c2cc1C(N)=O` [Compound I-46, (S)-7-isopropoxy-4-(1-(1-methylpiperidin-4-yl)-1H-pyrazol-4-yl)-1-((5-oxopyrrolidin-2-yl)methoxy)isoquinoline-6-carboxamide], the 50% inhibitory concentration (IC50) amounted to 5.42 µM in the assay on IL23p19 in THP-1 Cells, 1.25 µM in the assay on TNF-α in human PBMCs, 466 nM in assay [1] and 15.6 nM on IRAK4.
On to `CC(C)Oc1cc2c(OC[C@@H]3CCC(=O)N3)ncc(-c3cn[nH]c3)c2cc1C(N)=O` [Compound I-47, (S)-7-isopropoxy-1-((5-oxopyrrolidin-2-yl)methoxy)-4-(1H-pyrazol-4-yl)isoquinoline-6-carboxamide], for which the IC50 in the assay with IL23p19 in THP-1 Cells turned out to be 2.73 µM; in the assay on TNF-α in human PBMCs, 0.816 µM; in assay [1] it was 1870 nM; against IRAK4, 7.6 nM.
`CC(C)Oc1cc2c(OC[C@@H]3CC(F)(F)C(=O)N3)ncc(C#CC3(O)CCCC3)c2cc1C(N)=O` [Compound I-48, (S)-1-((4,4-difluoro-5-oxopyrrolidin-2-yl)methoxy)-4-((1-hydroxycyclopentyl)ethynyl)-7-isopropoxyisoquinoline-6-carboxamide]: the IC50 in the assay with IL23p19 in THP-1 Cells turned out to be 0.165 µM; in the assay on TNF-α in human PBMCs, 0.0569 µM; in assay [1], 120 nM; at IRAK4, 4.4 nM.
Consider `CC(C)Oc1cc2c(OC[C@@H]3CC(F)(F)C(=O)N3)ncc(C#CC3CCOCC3)c2cc1C(N)=O` [Compound I-49, (S)-1-((4,4-difluoro-5-oxopyrrolidin-2-yl)methoxy)-7-isopropoxy-4-((tetrahydro-2H-pyran-4-yl)ethynyl)isoquinoline-6-carboxamide], for which the concentration for half-maximal inhibition (IC50) with IL23p19 in THP-1 Cells was 0.273 µM; in the assay with TNF-α in human PBMCs it was 0.0853 µM; in assay [1], 73.7 nM; on IRAK4 it was 7.6 nM.
Consider `CC(C)Oc1cc2c(OC[C@@H]3CC(F)(F)C(=O)N3)ncc(C#CCC3CCOCC3)c2cc1C(N)=O` [Compound I-50, (S)-1-((4,4-difluoro-5-oxopyrrolidin-2-yl)methoxy)-7-isopropoxy-4-(3-(tetrahydro-2H-pyran-4-yl)prop-1-yn-1-yl)isoquinoline-6-carboxamide], for which the IC50 was determined as 1.62 µM in the assay on IL23p19 in THP-1 Cells, 0.115 µM in the assay on TNF-α in human PBMCs, 230 nM in assay [1] and 4.8 nM against IRAK4.
With `CC(C)Oc1cc2c(OC[C@@H]3CC(F)(F)C(=O)N3)ncc(C#CC3(O)CCOCC3)c2cc1C(N)=O` [Compound I-51, (S)-1-((4,4-difluoro-5-oxopyrrolidin-2-yl)methoxy)-4-((4-hydroxytetrahydro-2H-pyran-4-yl)ethynyl)-7-isopropoxyisoquinoline-6-carboxamide], the 50% inhibitory concentration (IC50) in the assay with IL23p19 in THP-1 Cells turned out to be 1.27 µM; in the assay on TNF-α in human PBMCs it was 0.391 µM; in assay [1], 1030 nM; at IRAK4, 5.3 nM.
